According to the NIST ThermoML archive (doi:10.1021/je300736k):
± gives the expanded uncertainty stated by the source.

Conditions: Liquid, Closed cell (Static) method

vapor or sublimation pressure (278.15 K) [kPa]	vapor or sublimation pressure (283.15 K) [kPa]	vapor or sublimation pressure (288.15 K) [kPa]	vapor or sublimation pressure (293.15 K) [kPa]	vapor or sublimation pressure (298.15 K) [kPa]	vapor or sublimation pressure (303.15 K) [kPa]	vapor or sublimation pressure (308.15 K) [kPa]	vapor or sublimation pressure (313.15 K) [kPa]	vapor or sublimation pressure (318.15 K) [kPa]	vapor or sublimation pressure (323.15 K) [kPa]	SMILES
0.071 ± 0.026	0.093 ± 0.026	0.13 ± 0.026	0.178 ± 0.026	0.253 ± 0.026	0.346 ± 0.026	0.477 ± 0.026	0.627 ± 0.027	0.828 ± 0.027	1.101 ± 0.027	CC12CCC(CC1)C(C)(C)O2 [1,3,3-trimethyl-2-oxabicyclo[2.2.2]octane]
0.704 ± 0.027	1.012 ± 0.027	1.449 ± 0.028	2.038 ± 0.028	2.838 ± 0.029	3.866 ± 0.029	5.229 ± 0.03	7.006 ± 0.032	9.295 ± 0.035	12.18 ± 0.037	CCCO [propan-1-ol]
